Experimental data as given in patent publication US4357344A, “Polybutylbenzylphenols and benzyl-3,4-methylenedioxybenzenes in insect population control” (The United States of America as represented by the …, priority 1979, dated 1982).

Tests used:
Type in all cases: in vivo
flies (family Muscidae) [1] = assay: Oviposition inhibition tests (treated fly food; Examples 6-9)
Protocol: The compound to be tested was administered in a standard fly food containing 6 parts of sugar, 6 parts of powdered non-fat dry milk, and 1 part of powdered egg yolk. Treated food was prepared by mixing an appropriate amount of a solution or suspension of CBCP in acetone with a batch of the food. The acetone was evaporated (4-6 hours) and the dry material was repulverized. Oviposition inhibition tests: Samples of treated food with a container of water were placed in cages containing 100 newly-emerged adult flies (family Muscidae). After the flies had been exposed to the treated diet for 6-7 days, 1/2 inch of moist standard fly larva-rearing medium (CSMA) in souffle cups was placed in the cages for oviposition. After 4-6 hours, the cup was removed and examined for eggs. […] The procedure outlined in Example 6 was followed using a Group II compound. The procedure outlined in Example 6 was followed using Group III compounds. The results are summarized below: The procedure outlined in Example 6 was followed substituting a Group IV compound for those of Group I. The table below provides a summary of results.

[2] = test system: early fourth-stage larvae of the common malaria mosquito (Anopheles quadrimaculatus); assay: Growth-inhibition tests on mosquito larvae; conditions: in water; corrected by Abbott's formula
Protocol: The compound to be tested was added to one liter of water until the final concentration thereof was a growth-inhibiting amount. Fifty early fourth-stage larvae of the common malaria mosquito (Anopheles quadrimaculatus) were placed on this water. Larval food was administered daily. Dead larvae and pupae were removed, counted, and discarded daily. Live pupae were removed, rinsed, and transferred to a cup of distilled water. The cup was placed in an emergence cage, and the emerging adults, if any, were maintained on a sugar-water diet.
The effectiveness of the compound in inhibiting growth was determined by adding the number of dead larvae and pupae and the number of adults that were dead, unable to complete eclosion, and malformed. This sum was corrected by Abbott's formula (to adjust for the number of larvae or pupae which would die naturally) and designated as the GI (growth inhibition). The results are expressed as GI-90, i.e., the concentration of growth inhibitor in ppm that would prevent and/or retard growth in 90% of the treated larvae.

flies (family Muscidae) [3] = assay: Chemosterilancy tests (egg hatch and pupal development; Examples 6-9)
Protocol: The compound to be tested was administered in a standard fly food containing 6 parts of sugar, 6 parts of powdered non-fat dry milk, and 1 part of powdered egg yolk. Treated food was prepared by mixing an appropriate amount of a solution or suspension of CBCP in acetone with a batch of the food. The acetone was evaporated (4-6 hours) and the dry material was repulverized.
Chemosterilancy tests: If eggs were laid in the above tests, the cups were filled with water and stirred to break up the egg masses. A random sample of 100 eggs from each cup was collected and placed on a small piece of black cloth which was then laid on top of moist larva-rearing medium in a rearing container. Observations were made to determine percentage of egg hatch and pupal development.
The procedure outlined in Example 6 was followed using a Group II compound.
The procedure outlined in Example 6 was followed using Group III compounds. The results are summarized below:
The procedure outlined in Example 6 was followed substituting a Group IV compound for those of Group I. The table below provides a summary of results.

Row | Compound | Mortality, parent generation (flies (family Muscidae) [1]; 0.25% in food) [%] | Mortality, parent generation (flies (family Muscidae) [1]; 0.5% in food) [%] | GI-90 (concentration of growth inhibitor that would prevent and/or retard growth in 90% of the treated larvae) [2] [ppm] | Egg hatch (flies (family Muscidae) [3]; 0.25% in food) [%] | Pupal development (flies (family Muscidae) [3]; 0.25% in food) [%] | Mortality, parent generation (flies (family Muscidae) [1]; 0.05% in food) [%] | Mortality, parent generation (flies (family Muscidae) [1]; 0.1% in food) [%] | Egg hatch (flies (family Muscidae) [3]; 0.05% in food) [%] | Pupal development (flies (family Muscidae) [3]; 0.05% in food) [%] | Egg hatch (flies (family Muscidae) [3]; 0.1% in food) [%] | Pupal development (flies (family Muscidae) [3]; 0.1% in food) [%] | further results
1 | COc1cc2c(cc1C(C)c1ccccc1)OCO2 (stereo not drawn) [Compound T, (α-Methylbenzyl)-3,4-methylenedioxy-6-methoxybenzene] | 60 | 42 | 0.6 | 56 | 56 |  |  |  |  |  |  | Egg hatch (flies (family Muscidae) [3]; 0.5% in food): 0%; Pupal development (flies (family Muscidae) [3]; 0.5% in food): 0%
2 | CCCc1cc2c(cc1Cc1ccc(OC)cc1)OCO2 [DD, (4-Methoxybenzyl)-3,4-methylenedioxy-6-n-propylbenzene] | 0 |  | 0.2 |  |  | 0 | 0 | 0 | 0 | 0 | 0 | Mortality, parent generation (flies (family Muscidae) [1]; 0.025% in food): 0%; Egg hatch (flies (family Muscidae) [3]; 0.025% in food): 7%; Pupal development (flies (family Muscidae) [3]; 0.025% in food): 7%
3 | CC(c1ccccc1)c1cc(C(C)(C)C)c(O)c(C(C)(C)C)c1 (stereo not drawn) [E, 2,6-Di-t-butyl-4-(α-methylbenzyl)phenol] | 0 | 0 | 0.072 | 0 | 0 |  | 0 |  |  | 36 | 36 | Mortality, parent generation (flies (family Muscidae) [1]; 1.0% in food): 0%; Oviposition (flies (family Muscidae) [1]; 1.0% in food): Normal; Egg hatch (flies (family Muscidae) [3]; 0.5% in food): 0%; Pupal development (flies (family Muscidae) [3]; 0.5% in food): 0%; Egg hatch (flies (family Muscidae) [3]; 1.0% in food): 0%; Pupal development (flies (family Muscidae) [3]; 1.0% in food): 0%
4 | COc1ccc(C(C)c2cc3c(cc2OC)OCO3)cc1 (stereo not drawn) [H, (α-Methyl-4-methoxybenzyl)-3,4-methylenedioxy-6-methoxybenzene] |  |  | 0.5 |  |  |  |  |  |  |  |  | Mortality, parent generation (flies (family Muscidae) [1]; 0.01% in food): 0%; Mortality, parent generation (flies (family Muscidae) [1]; 0.025% in food): 0%; Egg hatch (flies (family Muscidae) [3]; 0.01% in food): 14%; Pupal development (flies (family Muscidae) [3]; 0.01% in food): 14%; Egg hatch (flies (family Muscidae) [3]; 0.025% in food): 45%; Pupal development (flies (family Muscidae) [3]; 0.025% in food): 45%
5 | COc1ccc(Cc2ccc3c(c2)OCO3)cc1C [HH, (3-Methyl-4-methoxybenzyl)-3,4-methylenedioxybenzene] | 80 |  |  |  |  |  | 0 |  |  | 82 | 82 | 
6 | CCOc1ccc(Cc2ccc3c(c2)OCO3)cc1C [II, (3-Methyl-4-ethoxybenzyl)-3,4-methylenedioxybenzene] | 0 | 80 |  | 50 | 50 |  |  |  |  |  |  | 
7 | CCCCOc1cc2c(cc1C(C)c1ccc(OC)cc1)OCO2 (stereo not drawn) [J, (α-methyl-4-methoxybenzyl)-3,4-methylenedioxy-6-n-butoxybenzene] |  |  | 0.025 |  |  | 0 |  | 3 | 3 |  |  | Mortality, parent generation (flies (family Muscidae) [1]; 0.01% in food): 0%; Mortality, parent generation (flies (family Muscidae) [1]; 0.025% in food): 0%; Egg hatch (flies (family Muscidae) [3]; 0.025% in food): 61%; Pupal development (flies (family Muscidae) [3]; 0.025% in food): 61%
8 | COc1c(C)cc(Cc2ccc3c(c2)OCO3)cc1C [JJ, (3,5-Dimethyl-4-methoxybenzyl)-3,4-methylenedioxybenzene] | 0 | 70 | 0.6 | 0 | 0 | 0 | 0 | 70 | 70 | 6 | 6 | 
9 | CCCCCOc1cc2c(cc1C(C)c1ccc(OC)cc1)OCO2 (stereo not drawn) [K, (α-methyl-4-methoxybenzyl)-3,4-methylenedioxy-6-n-pentoxybenzene] | 0 | 0 | 0.060 | 0 | 0 |  | 0 |  |  | 70 | 70 | Mortality, parent generation (flies (family Muscidae) [1]; 1.0% in food): 0%; Egg hatch (flies (family Muscidae) [3]; 0.5% in food): 0%; Pupal development (flies (family Muscidae) [3]; 0.5% in food): 0%; Egg hatch (flies (family Muscidae) [3]; 1.0% in food): 0%; Pupal development (flies (family Muscidae) [3]; 1.0% in food): 0%
10 | CCOc1c(C)cc(Cc2ccc3c(c2)OCO3)cc1C [KK] | 0 | 85 | 0.9 | 85 | 85 |  |  |  |  |  |  | 
11 | COc1ccc(Cc2cc3c(cc2OC)OCO3)cc1 [L, (4-Methoxybenzyl)-3,4-methylenedioxy-6-methoxybenzene] | 60 |  |  |  |  | 0 | 0 | 0 | 0 | 0 | 0 | Mortality, parent generation (flies (family Muscidae) [1]; 0.01% in food): 0%; Egg hatch (flies (family Muscidae) [3]; 0.01% in food): 91%; Pupal development (flies (family Muscidae) [3]; 0.01% in food): 91%
12 | COc1ccc(Cc2ccc3c(c2)OCO3)c(OC)c1 [LL, (2,4-Dimethoxybenzyl)-3,4-methylenedioxybenzene] | 60 |  | 0.2 |  |  |  | 0 |  |  | 76 | 76 | 
13 | CCOc1cc2c(cc1Cc1ccc3c(c1)OCO3)OCO2 [NN, (3,4-methylenedioxy-6-ethoxybenzyl)-3,4-methylenedioxybenzene] |  |  |  |  |  | 0 | 0 | 2 | 2 | 0 | 0 | 
14 | COc1ccc(Cc2cc3c(cc2OC(C)C)OCO3)cc1 [O, (4-Methoxybenzyl)-3,4-methylenedioxy-6-iso-propoxybenzene] | 0 | 80 | 0.8 | 0 | 0 | 0 |  | 48 | 48 |  |  | 
15 | CCCCOc1cc2c(cc1Cc1ccc(OC)cc1)OCO2 [P, (4-Methoxybenzyl)-3,4-methylenedioxy-6-n-butoxybenzene] | 0 | 0 | 0.047 | 0 | 0 | 0 | 0 | 36 | 36 | 10 | 10 | Egg hatch (flies (family Muscidae) [3]; 0.5% in food): 0%; Pupal development (flies (family Muscidae) [3]; 0.5% in food): 0%
16 | COc1ccc(Cc2cc3c(cc2OCC(C)C)OCO3)cc1 [Q, (4-Methoxybenzyl)-3,4-methylenedioxy-6-iso-butoxybenzene] | 0 | 90 | 0.082 | 0 | 0 | 0 | 0 | 28 | 28 | 0 | 0 | 
17 | CCCCCOc1cc2c(cc1Cc1ccc(OC)cc1)OCO2 [R] | 0 |  |  | 0 | 0 | 0 | 0 | 76 | 76 | 31 | 31 | 
18 | CCCCCOc1cc2c(cc1C(C)c1ccccc1)OCO2 (stereo not drawn) [W, (α-Methylbenzyl)-3,4-methylenedioxy-6-n-pentoxybenzene] |  |  | 0.2 |  |  |  |  |  |  |  |  | 
